Measured values published in patent US9439874B2, “Food composition for nourishing, maintaining and cultivating a variety of stem cells and a method for manufacturing the same” (THE WRITER OF RESVERATROL BIOTECH R&D CO., LTD., priority 2012, dated 2016).

What was measured:
[1] = tested on: rat mesenchymal stem cells; conditions: cited from earlier work
[2] = tested on: cervical cancer Hela cells; conditions: cited from earlier work
[3] = tested on: human telomerase reverse transcriptase (hTERT); conditions: dose- and time-dependent; cited from earlier work
[4] = tested on: human lung adenocarcinoma A549 cells; conditions: 20 μM, EGF-induced; cited from earlier work
[5] = tested on: MDA-MB-231 cell; conditions: combination with TRAIL; cited from earlier work
[6] = tested on: L-8; conditions: mouse, in vivo; cited from earlier work
[7] = tested on: nematodes, drosophila, African Carp and mouse; conditions: cited from earlier work
[8] = isomerization under irradiation of UV analyzer; format: physicochemical; conditions: UV analyzer 136 μw/cm^2, embedded vs unembedded
Excerpt: 2. Solutions to the problem of cis & trans structures and transformation of resveratrol. Trans-resveratrol is very instable and will transform into cis-resveratrol under the UV irradiation. After its aqueous solution (pH1-7) kept in dark place for 28 day, 4.7% of the trans-resveratrol will transform into cis-resveratrol. Low water solubility and poor stability under UV irradiation restrict the all-purpose application. Therefore, HP-β-CD is used to embed the resveratrol into inclusion compound. […] Moreover, the food formula packaged by capsule solves the problems of oxidization misgivings and stability.

[9] = tested on: human laryngeal cancer Hep-2 cell; conditions: cited from earlier work
[10] = tested on: esophageal cancer cell; conditions: cited from earlier work
[11] = tested on: cancer stem cells; conditions: cited from earlier work
[12] = tested on: human gastric cancer BGC823 cells; conditions: cited from earlier work
[13] = tested on: malignant glioma cell line U87 and cancer stem cells (CSCs); conditions: cited from earlier work
[14] = tested on: Lewis lung carcinoma; conditions: mouse, in vivo; cited from earlier work
[15] = tested on: Lymphoma Raji cells; conditions: in vitro; cited from earlier work
[16] = cited from earlier work

SMILES: O=c1c(O)c(-c2ccc(O)c(O)c2)oc2cc(O)cc(O)c12 [quercetin]
- proliferation and differentiation of mesenchymal stem cells of bone marrow [1]: promote
- expression of BMP2 mRNA ([1]; differentiation of mesenchymal stem cells): increase

SMILES: Oc1ccc(C=Cc2cc(O)cc(O)c2)cc1 [resveratrol]
- in vitro growth of cervical cancer Hela cells [2]: obvious inhibition effects
- expression of hTERT mRNA and protein [3]: down-regulated
- A549 cells' invasion [4]: inhibit
- TRAIL-induced cell apoptosis [5]: enhanced
- tumor-bearing mice L-8 generation [6]: inhibit
- prolongation of life [7]: 30-75%
- isomerization under UV irradiation [8]: quickens up isomerization
- Hep-2 cell proliferation [9]: suppress
- esophageal cancer cell apoptosis [10]: induce
- cancer stem cells survival ([11]; high concentration of resveratrol with radiotherapy): one-third
- enhancement of radiotherapy ([11]; high concentration of resveratrol, mice bearing tumor): 30%-50%
- proliferation of BGC823 cells [12]: inhibit
- telomerase activity in BGC823 ([12]; with the extension of the time): declined
- apoptosis of U87 and cancer stem cells [13]: induce
- growth of Lewis lung carcinoma in mice [14]: inhibiting the growth
- IL-8 mRNA expression of lymphoma Raji cells [15]: inhibit
- proliferation of lymphoma Raji cells [15]: inhibit
- solubility in organic solvents ([16]; ethyl ether, chloroform, methanol, ethanol, acetone, acetic ether): soluble
- solubility in water ([16]; water): hardly soluble (slightly soluble)
